For three compounds, EC50 results are on record in article PMC10461100, “Transcuticular calcium imaging as a tool for the functional study of insect odorant receptors” (Frontiers in Molecular Neuroscience, 2023).

One test has as its system T1, SlitOR29.
T1 construct: full-length UAS transgene in Drosophila melanogaster ab3A basiconic neurons in place of DmelOR22a/b; endogenous Drosophila Orco; GCaMP6s reporter co-expressed; with Odorant receptor coreceptor (endogenous, Drosophila melanogaster)
In words: transcuticular calcium imaging (GCaMP6s), dose-response. Further details: species or system Spodoptera littoralis. Particulars: volatile stimulus; dose loaded on filter paper (in mineral oil), not a concentration; in vivo fly antenna; 1 s puff.

The target in the next test is T2, SlitOR6 (Spodoptera littoralis, UniProt I6LJY9).
T2 construct: gene OR6; full-length UAS transgene in Drosophila melanogaster at1 trichoid neurons in place of DmelOR67d; endogenous Drosophila Orco; GCaMP6m reporter co-expressed; with Odorant receptor coreceptor (endogenous, Drosophila melanogaster)
T2 sequence (I6LJY9 1-432): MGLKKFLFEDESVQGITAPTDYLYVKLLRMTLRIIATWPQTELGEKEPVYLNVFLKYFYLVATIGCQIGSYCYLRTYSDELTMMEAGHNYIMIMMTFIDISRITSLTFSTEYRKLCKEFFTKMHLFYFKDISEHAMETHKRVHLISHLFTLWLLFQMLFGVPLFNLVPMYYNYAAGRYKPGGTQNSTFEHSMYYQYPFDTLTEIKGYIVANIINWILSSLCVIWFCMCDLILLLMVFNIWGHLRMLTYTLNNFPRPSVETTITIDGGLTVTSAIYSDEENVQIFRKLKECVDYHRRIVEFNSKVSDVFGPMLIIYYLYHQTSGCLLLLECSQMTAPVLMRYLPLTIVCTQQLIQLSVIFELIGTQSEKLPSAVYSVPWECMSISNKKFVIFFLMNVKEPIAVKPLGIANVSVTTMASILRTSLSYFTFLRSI
T2 sequence (Q9VNB5 1-486 partner): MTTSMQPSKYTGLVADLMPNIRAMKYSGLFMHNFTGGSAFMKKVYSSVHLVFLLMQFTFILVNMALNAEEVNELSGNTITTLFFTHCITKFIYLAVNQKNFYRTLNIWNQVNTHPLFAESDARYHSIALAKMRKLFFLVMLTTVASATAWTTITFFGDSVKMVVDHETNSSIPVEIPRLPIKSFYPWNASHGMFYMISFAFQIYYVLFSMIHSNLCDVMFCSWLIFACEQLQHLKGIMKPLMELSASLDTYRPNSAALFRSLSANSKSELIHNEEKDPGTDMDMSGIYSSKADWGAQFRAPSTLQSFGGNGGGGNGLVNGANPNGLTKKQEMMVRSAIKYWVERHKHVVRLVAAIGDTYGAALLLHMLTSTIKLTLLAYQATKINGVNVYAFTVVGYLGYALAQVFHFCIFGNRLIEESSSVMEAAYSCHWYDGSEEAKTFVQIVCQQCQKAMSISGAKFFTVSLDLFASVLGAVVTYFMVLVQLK
Description: transcuticular calcium imaging (GCaMP6m), dose-response. Particulars: volatile stimulus; dose loaded on filter paper (in hexane), not a concentration; in vivo fly antenna; 1 s puff.

`C=C/C(C)=C/CC=C(C)C` [(E)-ocimene]: in the test on SlitOR29, the EC50 was 1.27 ± 0.37 µg.
`CC/C=C\CCOC(C)=O` [(Z)-3-hexenyl acetate]: the EC50 with SlitOR29 is 11.52 ± 0.70 µg.
Turning to `C/C=C/C/C=C\CCCCCCCCOC(C)=O` [(Z,E)-9,12-tetradecadienyl acetate], on SlitOR6, the EC50 worked out at 0.96 ± 0.14 µg.
